Assay results as given in patent publication US7750017B2, “Heterocycles” (Bayer Schering Pharma Aktiengesellschaft, priority 2004, dated 2010).
Structures can show the parent of a compound that is named as a salt.

Assays:
[1] = system: BT474 [human breast carcinoma, overexpressing HER2 (ErbB2)]; test: In vitro tumor cell proliferation assay (Cell Titer-Glo luminescent cell viability), BT474 cells; type: cell-based; conditions: BT-474, 72 h, 72 hours of drug exposure, Cell Titer-Glo readout, read-out: IC50, anti-proliferative activity in BT474 cells
Source text: (§1) The utility of the compounds of the present invention can be illustrated, for example, by their activity in vitro in the in vitro tumor cell proliferation assay described below. The link between activity in tumor cell proliferation assays in vitro and anti-tumor activity in the clinical setting has been very well established in the art.
(§2) The following assay is one of the methods by which compound activity relating to treatment of the disorders identified herein can be determined.
(§3) The tumor cell proliferation assay used to test the compounds of the present invention involves a readout called Cell Titer-Glow® Luminescent Cell Viability Assay developed by Promega® (Cunningham, B A “A Growing Issue: Cell Proliferation Assays, Modern kits ease quantification of cell growth” The Scientist 2001, 15(13), 26, and Crouch, S P et al., “The use of ATP bioluminescence as a measure of cell proliferation and cytotoxicity” Journal of Immunological Methods 1993, 160, 81-88), that measures inhibition of cell proliferation. Generation of a luminescent signal corresponds to the amount of ATP present, which is directly proportional to the number of metabolically active (proliferating) cells.
(§4) A431 cells [human epidermoid carcinoma, ATCC # […], overexpressing HER1 (EGFR, ErbB1)] and BT474 [human breast carcinoma, ATCC # CRL-1555, overexpressing HER2 (ErbB2)] were plated at a density of 2.5×10^3 cells/well in 96 well black-clear bottom tissue culture plates in RPMI media with 10% Fetal Bovine Serum and incubated at 37° C. Twenty-four hours later, test compounds are added at a final concentration range from as high 100 μm to as low 64 pM depend on the activities of the tested compounds in serial dilutions at a final DMSO concentration of 0.1%. Cells were incubated for 72 hours at 37° C. in complete growth media after addition of the test compound. After 72 hours of drug exposure, the plates were equilibrated to room temperature for approximately 30 min. Then, using a Promega Cell Titer Glo Luminescent® assay kit, lysis buffer containing 100 microliters of the enzyme luciferase and its substrate, luciferin mixture, was added to each well. The plates were mixed for 2 min on orbital shaker to ensure cell lysis and incubated for 10 min at room temperature to stabilize luminescence signal. The samples were read on VICTOR 2 using Luminescence protocol, and analyzed with Analyze5 software to generate IC50 values.

[2] = system: A431 cells [human epidermoid carcinoma, overexpressing HER1 (EGFR, ErbB1)]; test: In vitro tumor cell proliferation assay (Cell Titer-Glo luminescent cell viability), A431 cells; type: cell-based; conditions: A-431, 72 h, 72 hours of drug exposure, Cell Titer-Glo readout, read-out: IC50, anti-proliferative activity in A431 cells
Source text: as §1, §2, §3, §4

Row | Compound | IC50 [1] [µM] | IC50 [2] [µM]
1 | COC1CCN(CCc2ccc3c(c2)sc2ncnc(Nc4ccc(OCc5cccc(F)c5)c(Cl)c4)c23)C1 (stereo not drawn) [Example 20, N-{3-chloro-4-[(3-fluorobenzyl)oxy]phenyl}-7-[2-(3-methoxypyrrolidin-1-yl)ethyl][1] benzothieno[2,3-d]pyrimidin-4-amine] | ≤ 0.5 | ≤ 5
2 | CN1CCN(CCc2ccc3c(c2)sc2ncnc(Nc4ccc(OCc5cccc(F)c5)c(Cl)c4)c23)CC1 [Example 21, N-{3-chloro-4-[(3-fluorobenzyl)oxy]phenyl}-7-[2-(4-methylpiperazin-1-yl)ethyl][1] benzothieno[2,3-d]pyrimidin-4-amine] | ≤ 0.5 | ≤ 5
3 | OCCNCCc1ccc2c(c1)sc1ncnc(Nc3ccc(OCc4cccc(F)c4)c(Cl)c3)c12 [Example 22, 2-({2-[4-({3-chloro-4-[(3-fluorobenzyl)oxy]phenyl}amino) [1]benzothieno [2,3-d]pyrimidin-7-yl]ethyl}amino)ethanol] | ≤ 0.5 | ≤ 5
4 | Fc1cccc(COc2ccc(Nc3ncnc4sc5cc(CCN6CCNCC6)ccc5c34)cc2Cl)c1 [Example 23, N-{3-chloro-4-[(3-fluorobenzyl)oxy]phenyl}-7-(2-piperazin-1-ylethyl)[1]benzothieno [2,3-d]pyrimidin-4-amine] | ≤ 0.5 | ≤ 5
5 | CN(C)[C@H]1CCN(CCc2ccc3c(c2)sc2ncnc(Nc4ccc(OCc5cccc(F)c5)c(Cl)c4)c23)C1 [Example 24, N-{3-chloro-4-[(3-fluorobenzyl)oxy]phenyl}-7-{2-[3-(dimethylamino)pyrrolidin-1-yl]ethyl}[1]benzothieno[2,3-d] pyrimidin-4-amine] | ≤ 5 | ≤ 5
6 | OC[C@@H](O)c1ccc2c(c1)sc1ncnc(Nc3ccc(OCc4cccc(F)c4)c(Cl)c3)c12 [Example 26, (1S)-1-[4-({3-chloro-4-[(3-fluorobenzyl)oxy]phenyl}amino)[1]benzothieno[2,3-d]pyrimidin-7-yl]ethane-1,2-diol] | ≤ 0.5 | ≤ 5
7 | OC[C@H](O)c1ccc2c(c1)sc1ncnc(Nc3ccc(OCc4cccc(F)c4)c(Cl)c3)c12 [Example 27, (1R)-1-[4-({3-chloro-4-[(3-fluorobenzyl)oxy]phenyl}amino) [1]benzothieno[2,3-d]pyrimidin-7-yl]ethane-1,2-diol] | ≤ 0.5 | ≤ 5
8 | O=C(Cc1ccc2c(c1)sc1ncnc(Nc3ccc(OCc4cccc(F)c4)c(Cl)c3)c12)N1CCOCC1 [Example 28, 2-{4-[3-Chloro-4-(3-fluoro-benzyloxy)-phenylamino]-benzo[4,5]thieno[2,3-]pyrimidin-7-yl}-1-morpholin-4-yl-ethanone] | ≤ 0.5 | ≤ 5
9 | O=C(Cc1ccc2c(c1)sc1ncnc(Nc3ccc(OCc4cccc(F)c4)c(Cl)c3)c12)NCCOCCO [Example 29, 2-[4-({3-chloro-4-[(3-fluorobenzyl)oxy]phenyl}amino)[1]benzothieno[2,3-d]pyrimidin-7-yl]-N-[2-(2-hydroxyethoxy)ethyl] acetamide] | ≤ 0.5 | ≤ 5
10 | O=C(Cc1ccc2c(c1)sc1ncnc(Nc3ccc(OCc4cccc(F)c4)c(Cl)c3)c12)NCCN1CCOCC1 [Example 30, 2-[4-({3-chloro-4-[(3-fluorobenzyl)oxy]phenyl}amino)[1]benzothieno[2,3-d]pyrimidin-7-yl]-N-(2-morpholin-4-ylethyl)acetamide] | ≤ 0.5 | ≤ 5
11 | O=C(Cc1ccc2c(c1)sc1ncnc(Nc3ccc(OCc4cccc(F)c4)c(Cl)c3)c12)N1CCNCC1 [Example 31, N-{3-chloro-4-[(3-fluorobenzyl)oxy]phenyl}-7-(2-oxo-2-piperazin-1-ylethyl)[1] benzothieno[2,3-d]pyrimidin-4-amine hydrochloride] | ≤ 0.5 | ≤ 5
12 | CN1CCN(C(=O)Cc2ccc3c(c2)sc2ncnc(Nc4ccc(OCc5cccc(F)c5)c(Cl)c4)c23)CC1 [Example 32, N-{3-chloro-4-[(3-fluorobenzyl)oxy]phenyl}-7-[2-(4-methylpiperazin-1-yl)-2-oxoethyl][1]benzothieno[2,3-d] pyrimidin-4-amine] | ≤ 0.5 | ≤ 5
13 | O=C(Cc1ccc2c(c1)sc1ncnc(Nc3ccc(OCc4cccc(F)c4)c(Cl)c3)c12)NCC1CCCNC1 (stereo not drawn) [Example 33, 2-[4-({3-chloro-4-[(3-fluorobenzyl)oxy]phenyl}amino) [1]benzothieno[2,3-d]pyrimidin-7-yl]-N-(piperidin-3-ylmethyl) acetamide hydrochloride] | ≤ 0.5 | ≤ 50
14 | Oc1ccc2c(c1)sc1ncnc(Nc3ccc(OCc4cccc(F)c4)c(Cl)c3)c12 [Example 34, 4-({3-chloro-4-[(3-fluorobenzyl)oxy]phenyl}amino)[1]benzothieno[2,3-d]pyrimidin-7-ol] | ≤ 0.5 | ≤ 50
15 | OC[C@H](O)COc1ccc2c(c1)sc1ncnc(Nc3ccc(OCc4cccc(F)c4)c(Cl)c3)c12 [Example 36, (2S)-3-{[4-({3-chloro-4-[(3-fluorobenzyl)oxy]phenyl}amino)[1]benzothieno[2,3-d]pyrimidin-7-yl]oxy}propane-1,2-diol] | ≤ 0.5 | ≤ 5
16 | Fc1cccc(COc2ccc(Nc3ncnc4sc5cc(OCCN6CCOCC6)ccc5c34)cc2Cl)c1 [Example 38, N-{3-chloro-4-[(3-fluorobenzyl)oxy]phenyl}-7-(2-morpholin-4-ylethoxy) [1]benzothieno[2,3-d]pyrimidin-4-amine] | ≤ 0.5 | ≤ 5
17 | Fc1cccc(COc2ccc(Nc3ncnc4sc5cc(OCCCN6CCOCC6)ccc5c34)cc2Cl)c1 [Example 39, N-{3-chloro-4-[(3-fluorobenzyl)oxy]phenyl}-7-(3-morpholin-4-ylpropoxy)[1] benzothieno[2,3-d]pyrimidin-4-amine] | ≤ 0.5 | ≤ 5
18 | Fc1cccc(COc2ccc(Nc3ncnc4sc5cc(OCCn6cccc6)ccc5c34)cc2Cl)c1 [Example 40, N-{3-chloro-4-[(3-fluorobenzyl)oxy]phenyl}-7-[2-(1H-pyrrol-1-yl)ethoxy][1] benzothieno[2,3-d]pyrimidin-4-amine] | ≤ 5 | ≤ 50
19 | Fc1cccc(COc2ccc(Nc3ncnc4sc5cc(OCCN6CCCC6)ccc5c34)cc2Cl)c1 [Example 41, N-{3-chloro-4-[(3-fluorobenzyl)oxy]phenyl}-7-(2-pyrrolidin-1-ylethoxy)[1] benzothieno[2,3-d]pyrimidin-4-amine] | ≤ 0.5 | ≤ 5
20 | CCOC(=O)C(Oc1ccc2c(c1)sc1ncnc(Nc3ccc(OCc4cccc(F)c4)c(Cl)c3)c12)C(=O)OCC [Example 42, diethyl {[4-({3-chloro-4-[(3-fluorobenzyl)oxy]phenyl}amino)[1]benzothieno[2,3-d]pyrimidin-7-yl]oxy}malonate trifluoroacetate] | ≤ 5 | ≤ 50
21 | OCC(CO)Oc1ccc2c(c1)sc1ncnc(Nc3ccc(OCc4cccc(F)c4)c(Cl)c3)c12 [Example 43, 2-{[4-({3-chloro-4-[(3-fluorobenzyl)oxy]phenyl}amino) [1]benzothieno[2,3-d]pyrimidin-7-yl]oxy}propane-1,3-diol trifluoroacetate (salt)] | ≤ 0.5 | ≤ 50
